Measurements as given in ChEMBL document CHEMBL6096629, “Indolo[3,2-c]isoquinoline Hydroxamic Acid Derivatives as Novel Orally Topoisomerase-Histone Deacetylase Dual Inhibitors for NSCLC Therapy” (J Med Chem, 2025).

Experiments:
NCI-H1975 [1] = assay: Induction of cell cycle arrest in human NCI-H1975 cells assessed as accumulation at G2/M phase at 4 uM incubated for 48 hrs by PI staining based flow cytometry relative to control; assay type: functional
NCI-H1975 [2] = assay: Induction of cell cycle arrest in human NCI-H1975 cells assessed as accumulation at G2/M phase at 4 uM incubated for 48 hrs in presence of Irinotecan by PI staining based flow cytometry relative to control; assay type: functional
NCI-H1975 [3] = assay: Induction of apoptosis in human NCI-H1975 cells at 4 uM incubated for 24 hrs by Annexin V-FITC/PI staining based flow cytometry relative to control; assay type: functional
[4] = Toxicity BALB/c nude mouse xenografted with human NCI-H1975 cells assessed as body weight loss at 100 mg/kg, po qd in presence of Irinotecan treated for 21 days (Rvb > 11.5 %); assay type: organism-based; settings: in vivo, 504 h, time 21 day
NCI-H1975 [5] = assay: Induction of DNA damage in human NCI-H1975 cells assessed as DNA tail formation at 8 uM incubated for 48 hrs by Comet assay relative to control; assay type: functional
NCI-H1975 [6] = assay: Induction of apoptosis in human NCI-H1975 cells at 4 uM incubated for 24 hrs in presence of Irinotecan by Annexin V-FITC/PI staining based flow cytometry relative to control; assay type: functional
PC-3 = assay: Antiproliferative activity against human PC-3 cells incubated for 24 hrs in presence of SAHA by MTT assay; assay type: functional, cell-based; settings: PC-3, 24 h
NCI-H1975 [7] = assay: Antitumor activity against human NCI-H1975 cells xenografted in BALB/c nude mouse at 10 mg/kg, ip bid treated for 21 days in presence of SAHA relative to control; assay type: functional; settings: time 21 day
NCI-H2228 [8] = assay: Antiproliferative activity against human NCI-H2228 cells incubated for 24 hrs in presence of SAHA by MTT assay; assay type: functional, cell-based; settings: NCI-H2228, 24 h
HCT-116 = assay: cells; settings: Homo sapiens, HCT-116, 24 h
Description: Antiproliferative activity against human HCT-116 cells incubated for 24 hrs in presence of SAHA by MTT assay

MCF7 = assay: cells; settings: Homo sapiens, MCF7, 24 h
Description: Antiproliferative activity against human MCF7 cells incubated for 24 hrs in presence of SAHA by MTT assay

MDA-MB-231 [9] = assay: cells; assay type: functional, cell-based; settings: Homo sapiens, MDA-MB-231, 24 h
NCI-H1975 [10] = assay: Induction of apoptosis in human NCI-H1975 cells incubated for 24 hrs in presence of SAHA by Annexin V-FITC/PI staining based flow cytometry relative to control; assay type: functional
Huh-7 [11] = assay: Antiproliferative activity against human Huh-7 cells incubated for 24 hrs in presence of SAHA by MTT assay; assay type: functional, cell-based; settings: Huh-7, 24 h
NCI-H1975 [12] = assay: Inhibition of colony formation in human NCI-H1975 cells incubated for 24 hrs followed by re-culturing in fresh medium without compound measured after 14 days in presence of SAHA by crystal violet staining based analysis relative to control; assay type: functional
Huh-7 [13] = assay: Antiproliferative activity against human Huh-7 cells incubated for 24 hrs by MTT assay; assay type: functional, cell-based; settings: Huh-7, 24 h
MDA-MB-231 [14] = assay: cells; settings: Homo sapiens, MDA-MB-231, 24 h
Description: Antiproliferative activity against human MDA-MB-231 cells incubated for 24 hrs in presence of SAHA by MTT assay

[15] = Toxicity BALB/c nude mouse xenografted with human NCI-H1975 cells assessed as body weight loss at 10 mg/kg, ip bid in presence of SAHA treated for 21 days (Rvb > 11.5 %); assay type: organism-based; settings: in vivo, 504 h, time 21 day
NCI-H1975 [16] = assay: Inhibition of cell migration in human NCI-H1975 cells measured after 24 to 48 hrs in presence of SAHA by wound healing assay relative to control; assay type: functional; settings: time 24-48 hrs
NCI-H2228 [17] = assay: Antiproliferative activity against human NCI-H2228 cells incubated for 24 hrs by MTT assay; assay type: functional, cell-based; settings: NCI-H2228, 24 h
NCI-H1975 [18] = assay: Induction of cell cycle arrest in human NCI-H1975 cells assessed as accumulation at G2/M phase incubated for 48 hrs in presence of SAHA by PI staining based flow cytometry relative to control; assay type: functional
Histone deacetylase 9 = Histone deacetylase 9 (Homo sapiens, UniProt Q9UKV0)
Description: Inhibition of HDAC9 (unknown origin)

Histone deacetylase 11 = target: T1, Histone deacetylase 11 (Homo sapiens, UniProt Q96DB2)
T1 sequence (Q96DB2 whole entry): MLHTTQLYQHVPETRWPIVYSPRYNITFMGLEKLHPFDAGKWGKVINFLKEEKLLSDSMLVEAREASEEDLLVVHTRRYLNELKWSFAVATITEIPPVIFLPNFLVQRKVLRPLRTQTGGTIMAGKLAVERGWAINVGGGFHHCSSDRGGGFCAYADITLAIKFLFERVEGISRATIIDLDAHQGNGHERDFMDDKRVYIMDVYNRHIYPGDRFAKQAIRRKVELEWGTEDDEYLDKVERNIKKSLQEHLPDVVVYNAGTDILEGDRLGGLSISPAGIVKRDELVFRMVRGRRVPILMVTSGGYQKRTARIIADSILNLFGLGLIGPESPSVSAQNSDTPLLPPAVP
Description: Inhibition of HDAC11 (unknown origin)

Histone deacetylase 8 = target: T2, Histone deacetylase 8 (Homo sapiens, UniProt Q9BY41)
T2 sequence (Q9BY41 whole entry): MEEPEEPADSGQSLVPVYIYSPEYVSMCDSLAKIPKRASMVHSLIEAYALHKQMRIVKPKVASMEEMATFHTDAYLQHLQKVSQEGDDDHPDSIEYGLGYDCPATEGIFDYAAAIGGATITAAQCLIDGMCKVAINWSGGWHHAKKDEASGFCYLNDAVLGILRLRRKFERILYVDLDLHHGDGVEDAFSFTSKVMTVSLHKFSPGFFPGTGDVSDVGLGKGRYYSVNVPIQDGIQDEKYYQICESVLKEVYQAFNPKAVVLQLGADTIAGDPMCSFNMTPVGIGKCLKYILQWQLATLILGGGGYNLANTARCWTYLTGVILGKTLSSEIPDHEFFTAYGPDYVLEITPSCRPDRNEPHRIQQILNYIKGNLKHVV
Description: Inhibition of HDAC8 (unknown origin)

Histone deacetylase 4 = Histone deacetylase 4 (Homo sapiens, UniProt P56524)
Description: Inhibition of HDAC4 (unknown origin)

Histone deacetylase 3 = Histone deacetylase 3 (Homo sapiens, UniProt O15379)
Description: Inhibition of HDAC3 (unknown origin)

Histone deacetylase 7 = target: T3, Histone deacetylase 7 (Homo sapiens, UniProt Q8WUI4)
T3 sequence (Q8WUI4 whole entry): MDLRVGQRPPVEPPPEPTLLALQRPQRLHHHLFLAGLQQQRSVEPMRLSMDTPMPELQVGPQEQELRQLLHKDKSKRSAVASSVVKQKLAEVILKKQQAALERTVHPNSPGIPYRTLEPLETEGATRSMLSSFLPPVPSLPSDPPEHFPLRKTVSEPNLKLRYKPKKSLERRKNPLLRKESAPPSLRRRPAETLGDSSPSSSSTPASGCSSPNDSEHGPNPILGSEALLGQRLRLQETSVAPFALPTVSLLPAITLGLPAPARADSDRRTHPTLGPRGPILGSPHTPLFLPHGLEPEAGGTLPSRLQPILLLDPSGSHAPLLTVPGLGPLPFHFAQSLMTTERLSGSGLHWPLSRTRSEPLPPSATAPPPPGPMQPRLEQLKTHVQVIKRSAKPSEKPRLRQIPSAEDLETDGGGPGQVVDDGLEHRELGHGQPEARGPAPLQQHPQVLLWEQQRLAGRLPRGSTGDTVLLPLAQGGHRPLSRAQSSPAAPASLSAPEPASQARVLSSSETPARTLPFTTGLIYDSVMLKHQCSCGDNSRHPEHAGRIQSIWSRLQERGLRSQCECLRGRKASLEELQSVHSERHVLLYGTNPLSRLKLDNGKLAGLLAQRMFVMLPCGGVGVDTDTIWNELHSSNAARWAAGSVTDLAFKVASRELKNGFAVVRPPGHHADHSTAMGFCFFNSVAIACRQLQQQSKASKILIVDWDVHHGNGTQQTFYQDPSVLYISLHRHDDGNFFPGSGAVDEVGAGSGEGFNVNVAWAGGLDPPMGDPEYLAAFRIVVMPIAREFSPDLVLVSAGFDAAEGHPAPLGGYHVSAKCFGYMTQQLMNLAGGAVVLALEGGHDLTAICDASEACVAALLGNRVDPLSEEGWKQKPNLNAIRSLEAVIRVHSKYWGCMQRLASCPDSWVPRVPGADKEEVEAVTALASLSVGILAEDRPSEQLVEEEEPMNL
Description: Inhibition of HDAC7 (unknown origin)

Histone deacetylase 2 = Histone deacetylase 2 (Homo sapiens, UniProt Q92769); assay: Inhibition of HDAC2 (unknown origin)
[19] = target: T4, Polyamine deacetylase HDAC10 (Homo sapiens, UniProt Q969S8)
T4 sequence (Q969S8 whole entry): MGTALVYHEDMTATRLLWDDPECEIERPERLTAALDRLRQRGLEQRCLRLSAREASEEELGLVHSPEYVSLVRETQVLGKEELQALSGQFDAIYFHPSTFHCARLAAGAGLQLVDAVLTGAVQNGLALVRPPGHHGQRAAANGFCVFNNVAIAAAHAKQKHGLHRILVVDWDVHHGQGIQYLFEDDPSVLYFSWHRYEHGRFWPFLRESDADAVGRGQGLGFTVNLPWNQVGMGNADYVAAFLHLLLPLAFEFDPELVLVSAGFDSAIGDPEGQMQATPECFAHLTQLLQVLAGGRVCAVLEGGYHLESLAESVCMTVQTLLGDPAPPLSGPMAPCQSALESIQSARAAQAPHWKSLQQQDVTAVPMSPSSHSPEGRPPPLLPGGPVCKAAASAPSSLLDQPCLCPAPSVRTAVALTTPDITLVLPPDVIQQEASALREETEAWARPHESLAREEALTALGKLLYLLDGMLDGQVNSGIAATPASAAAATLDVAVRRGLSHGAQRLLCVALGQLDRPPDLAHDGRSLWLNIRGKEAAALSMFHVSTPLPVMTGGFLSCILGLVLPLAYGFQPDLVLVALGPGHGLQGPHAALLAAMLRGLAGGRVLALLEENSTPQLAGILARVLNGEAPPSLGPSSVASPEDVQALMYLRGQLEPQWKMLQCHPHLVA
Description: Inhibition of HDAC10 (unknown origin)

Histone deacetylase 5 = Histone deacetylase 5 (Homo sapiens, UniProt Q9UQL6)
Description: Inhibition of HDAC5 (unknown origin)

[20] = target: T5, Protein deacetylase HDAC6 (Homo sapiens, UniProt Q9UBN7)
T5 sequence (Q9UBN7 whole entry): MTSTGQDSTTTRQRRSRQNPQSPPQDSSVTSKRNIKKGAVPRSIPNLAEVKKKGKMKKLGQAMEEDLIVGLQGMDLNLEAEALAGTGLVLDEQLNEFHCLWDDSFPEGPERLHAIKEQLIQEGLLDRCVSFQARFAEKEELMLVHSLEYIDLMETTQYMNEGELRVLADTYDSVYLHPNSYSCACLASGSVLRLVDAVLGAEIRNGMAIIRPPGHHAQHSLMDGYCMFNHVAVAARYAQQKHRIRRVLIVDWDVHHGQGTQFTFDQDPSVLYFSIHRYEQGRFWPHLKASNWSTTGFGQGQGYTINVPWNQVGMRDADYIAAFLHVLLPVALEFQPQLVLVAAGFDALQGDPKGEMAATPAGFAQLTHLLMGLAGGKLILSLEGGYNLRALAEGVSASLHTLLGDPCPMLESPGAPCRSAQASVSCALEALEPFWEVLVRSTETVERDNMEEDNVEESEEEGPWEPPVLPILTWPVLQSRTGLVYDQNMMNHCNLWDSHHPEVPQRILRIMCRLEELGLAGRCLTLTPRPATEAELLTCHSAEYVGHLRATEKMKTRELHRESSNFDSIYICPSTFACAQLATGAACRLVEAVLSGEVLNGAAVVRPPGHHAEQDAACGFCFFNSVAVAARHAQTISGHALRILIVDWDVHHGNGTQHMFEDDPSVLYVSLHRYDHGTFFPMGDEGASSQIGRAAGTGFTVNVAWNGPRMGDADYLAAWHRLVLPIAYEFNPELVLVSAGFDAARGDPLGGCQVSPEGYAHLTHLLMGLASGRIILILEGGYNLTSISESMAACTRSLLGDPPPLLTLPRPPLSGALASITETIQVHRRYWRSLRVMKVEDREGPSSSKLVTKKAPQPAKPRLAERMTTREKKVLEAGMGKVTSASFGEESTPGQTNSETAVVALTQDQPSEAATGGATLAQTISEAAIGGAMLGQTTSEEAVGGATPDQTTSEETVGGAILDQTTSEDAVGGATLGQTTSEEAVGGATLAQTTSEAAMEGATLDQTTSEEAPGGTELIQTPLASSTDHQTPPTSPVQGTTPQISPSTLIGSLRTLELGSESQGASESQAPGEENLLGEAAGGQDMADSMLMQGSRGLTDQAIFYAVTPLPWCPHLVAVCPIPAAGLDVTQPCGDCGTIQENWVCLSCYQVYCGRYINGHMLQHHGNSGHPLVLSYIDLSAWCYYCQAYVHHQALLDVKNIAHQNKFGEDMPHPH
Description: Inhibition of HDAC6 (unknown origin)

Histone deacetylase 2, sequence (Q92769 whole entry): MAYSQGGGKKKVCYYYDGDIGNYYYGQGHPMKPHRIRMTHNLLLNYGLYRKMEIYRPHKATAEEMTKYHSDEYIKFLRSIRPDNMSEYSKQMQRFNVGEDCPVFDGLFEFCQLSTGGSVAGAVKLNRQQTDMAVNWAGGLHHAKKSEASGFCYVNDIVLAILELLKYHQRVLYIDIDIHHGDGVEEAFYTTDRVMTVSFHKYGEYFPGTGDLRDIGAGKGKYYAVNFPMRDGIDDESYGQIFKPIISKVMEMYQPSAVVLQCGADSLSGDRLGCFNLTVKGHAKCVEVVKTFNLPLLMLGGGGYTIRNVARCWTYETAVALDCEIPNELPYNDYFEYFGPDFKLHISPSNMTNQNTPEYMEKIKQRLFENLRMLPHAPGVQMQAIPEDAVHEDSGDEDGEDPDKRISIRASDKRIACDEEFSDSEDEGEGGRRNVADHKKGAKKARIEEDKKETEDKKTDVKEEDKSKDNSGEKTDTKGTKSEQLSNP
Histone deacetylase 5, sequence (Q9UQL6 whole entry): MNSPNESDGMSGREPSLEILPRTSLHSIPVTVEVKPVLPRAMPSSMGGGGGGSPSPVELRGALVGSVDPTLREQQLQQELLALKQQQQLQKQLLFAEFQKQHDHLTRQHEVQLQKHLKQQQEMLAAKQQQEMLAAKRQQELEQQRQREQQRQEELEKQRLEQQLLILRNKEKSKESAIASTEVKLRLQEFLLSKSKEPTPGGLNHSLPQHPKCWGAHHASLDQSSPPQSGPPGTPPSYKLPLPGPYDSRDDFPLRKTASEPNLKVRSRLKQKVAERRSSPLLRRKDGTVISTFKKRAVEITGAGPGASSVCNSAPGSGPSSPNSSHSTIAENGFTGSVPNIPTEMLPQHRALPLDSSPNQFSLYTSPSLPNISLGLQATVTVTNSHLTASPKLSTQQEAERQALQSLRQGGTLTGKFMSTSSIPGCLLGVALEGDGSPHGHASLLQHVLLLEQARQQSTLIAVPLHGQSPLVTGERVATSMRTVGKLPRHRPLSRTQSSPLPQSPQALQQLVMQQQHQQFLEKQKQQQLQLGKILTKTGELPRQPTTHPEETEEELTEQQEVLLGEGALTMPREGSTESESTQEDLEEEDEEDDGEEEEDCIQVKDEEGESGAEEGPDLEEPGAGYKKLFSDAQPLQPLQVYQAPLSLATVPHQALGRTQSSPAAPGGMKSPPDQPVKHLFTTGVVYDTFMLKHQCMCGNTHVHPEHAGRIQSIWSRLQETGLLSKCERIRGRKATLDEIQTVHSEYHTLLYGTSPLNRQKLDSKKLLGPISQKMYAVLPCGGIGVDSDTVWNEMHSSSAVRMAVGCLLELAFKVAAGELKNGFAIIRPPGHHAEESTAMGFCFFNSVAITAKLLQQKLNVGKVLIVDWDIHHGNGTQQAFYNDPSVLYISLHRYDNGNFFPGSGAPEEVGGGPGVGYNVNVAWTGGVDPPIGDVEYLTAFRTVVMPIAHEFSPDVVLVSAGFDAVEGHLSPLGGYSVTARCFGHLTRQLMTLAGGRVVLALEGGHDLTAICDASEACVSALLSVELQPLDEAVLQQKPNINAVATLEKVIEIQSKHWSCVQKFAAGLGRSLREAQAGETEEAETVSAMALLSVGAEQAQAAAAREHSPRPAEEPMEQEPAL
Histone deacetylase 9, sequence (Q9UKV0 whole entry): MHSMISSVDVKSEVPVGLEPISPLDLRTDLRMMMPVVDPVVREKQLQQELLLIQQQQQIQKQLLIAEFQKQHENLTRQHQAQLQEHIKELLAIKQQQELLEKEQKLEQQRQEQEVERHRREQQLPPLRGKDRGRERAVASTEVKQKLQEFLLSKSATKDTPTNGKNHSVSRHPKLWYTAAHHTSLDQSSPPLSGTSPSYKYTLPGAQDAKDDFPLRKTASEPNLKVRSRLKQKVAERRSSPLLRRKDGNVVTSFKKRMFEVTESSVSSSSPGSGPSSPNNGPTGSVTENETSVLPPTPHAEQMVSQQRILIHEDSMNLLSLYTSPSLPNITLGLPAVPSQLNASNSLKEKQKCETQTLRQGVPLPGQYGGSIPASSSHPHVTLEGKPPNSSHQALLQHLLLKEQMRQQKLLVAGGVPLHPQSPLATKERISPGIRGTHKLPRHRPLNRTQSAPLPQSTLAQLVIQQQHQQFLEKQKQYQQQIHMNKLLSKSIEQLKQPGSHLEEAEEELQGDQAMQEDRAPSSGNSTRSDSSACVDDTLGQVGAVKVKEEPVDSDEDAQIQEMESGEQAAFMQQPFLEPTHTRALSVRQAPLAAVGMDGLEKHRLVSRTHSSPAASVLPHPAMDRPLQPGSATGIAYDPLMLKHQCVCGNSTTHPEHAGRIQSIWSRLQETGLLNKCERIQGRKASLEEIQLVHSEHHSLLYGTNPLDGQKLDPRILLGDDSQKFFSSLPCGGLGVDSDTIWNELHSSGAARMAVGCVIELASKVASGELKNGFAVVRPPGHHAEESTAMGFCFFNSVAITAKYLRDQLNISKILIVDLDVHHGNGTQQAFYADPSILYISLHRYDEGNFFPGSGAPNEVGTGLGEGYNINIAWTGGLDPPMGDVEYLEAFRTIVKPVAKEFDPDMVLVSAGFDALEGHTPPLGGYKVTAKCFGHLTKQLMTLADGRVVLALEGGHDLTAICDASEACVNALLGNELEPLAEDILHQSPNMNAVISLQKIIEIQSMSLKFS
Histone deacetylase 4, sequence (P56524 whole entry): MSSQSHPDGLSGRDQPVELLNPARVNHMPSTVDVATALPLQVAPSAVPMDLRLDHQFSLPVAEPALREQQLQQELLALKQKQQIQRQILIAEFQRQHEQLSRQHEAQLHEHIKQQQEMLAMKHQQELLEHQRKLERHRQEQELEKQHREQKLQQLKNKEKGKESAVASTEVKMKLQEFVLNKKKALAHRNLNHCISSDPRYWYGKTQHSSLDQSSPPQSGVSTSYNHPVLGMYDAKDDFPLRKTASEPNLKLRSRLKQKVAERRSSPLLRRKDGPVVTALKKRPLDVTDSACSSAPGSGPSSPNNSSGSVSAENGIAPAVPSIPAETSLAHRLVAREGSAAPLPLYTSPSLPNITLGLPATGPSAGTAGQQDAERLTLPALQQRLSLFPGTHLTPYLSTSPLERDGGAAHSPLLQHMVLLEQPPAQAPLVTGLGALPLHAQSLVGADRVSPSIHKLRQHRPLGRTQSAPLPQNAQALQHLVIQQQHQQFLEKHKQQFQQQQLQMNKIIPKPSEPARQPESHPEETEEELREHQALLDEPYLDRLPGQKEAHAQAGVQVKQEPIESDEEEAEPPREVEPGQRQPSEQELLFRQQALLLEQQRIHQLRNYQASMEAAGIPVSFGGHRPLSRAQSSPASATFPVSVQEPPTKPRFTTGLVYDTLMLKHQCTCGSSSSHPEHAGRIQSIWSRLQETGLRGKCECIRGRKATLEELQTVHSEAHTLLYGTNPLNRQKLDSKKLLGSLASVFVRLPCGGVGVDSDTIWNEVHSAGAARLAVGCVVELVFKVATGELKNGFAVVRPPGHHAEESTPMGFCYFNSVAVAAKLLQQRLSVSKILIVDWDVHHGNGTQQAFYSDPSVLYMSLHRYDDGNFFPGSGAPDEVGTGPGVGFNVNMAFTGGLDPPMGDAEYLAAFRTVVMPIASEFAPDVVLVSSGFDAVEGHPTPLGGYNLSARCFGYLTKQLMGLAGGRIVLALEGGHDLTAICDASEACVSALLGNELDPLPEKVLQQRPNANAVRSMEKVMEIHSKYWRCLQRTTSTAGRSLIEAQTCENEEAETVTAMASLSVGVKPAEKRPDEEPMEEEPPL
Histone deacetylase 3, sequence (O15379 whole entry): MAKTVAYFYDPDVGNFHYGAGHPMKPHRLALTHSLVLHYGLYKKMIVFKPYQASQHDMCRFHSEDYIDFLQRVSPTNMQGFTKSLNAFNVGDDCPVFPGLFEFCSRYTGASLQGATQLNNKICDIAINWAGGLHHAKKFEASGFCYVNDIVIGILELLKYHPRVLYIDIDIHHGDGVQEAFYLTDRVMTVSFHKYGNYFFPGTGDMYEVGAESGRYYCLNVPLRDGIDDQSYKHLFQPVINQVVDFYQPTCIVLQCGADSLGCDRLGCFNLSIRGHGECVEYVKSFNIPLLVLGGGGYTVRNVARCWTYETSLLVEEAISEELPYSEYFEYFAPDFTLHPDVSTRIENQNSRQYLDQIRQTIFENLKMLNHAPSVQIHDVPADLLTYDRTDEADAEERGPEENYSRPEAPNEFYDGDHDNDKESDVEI

O=C(CCCCCCC(=O)Nc1ccccc1)NO [VORINOSTAT]
Activity (NCI-H1975 [1]): 30.4%
Activity (NCI-H1975 [2]): 35%
Activity (NCI-H1975 [3]): 46%
Activity [4]: 22.4%
Activity (NCI-H1975 [5]): 19.4%
Activity (NCI-H1975 [6]): 56.1%

CCc1c2c(nc3ccc(OC(=O)N4CCC(N5CCCCC5)CC4)cc13)-c1cc3c(c(=O)n1C2)COC(=O)[C@]3(O)CC [IRINOTECAN]
IC50 (PC-3): 1240 nM
inhibition in vivo at 10 mg/kg (NCI-H1975 [7]; Mus musculus, NCI-H1975, 504 h, read-out: TGI): 65.8%
T/C (NCI-H1975 [7]): 39.1%
IC50 (NCI-H2228 [8]): 1450 nM
IC50 (HCT-116): 730 nM
IC50 (MCF7): 970 nM
IC50 (MDA-MB-231 [9]): > 8000 nM
Activity (NCI-H1975 [10]): 56.1%
IC50 (Huh-7 [11]): 1790 nM
inhibition (INH) (NCI-H1975 [12]): 61.8%
IC50 (Huh-7 [13]): > 8000 nM
IC50 (MDA-MB-231 [14]): 1340 nM
Activity [15]: 22.4%
inhibition (INH) (NCI-H1975 [16]): 40.7%
IC50 (NCI-H2228 [17]): 3480 nM
Activity (NCI-H1975 [18]): 35%

O=C(CCCCCCn1c2cc3c(cc2c2ncc4ccccc4c21)OCO3)NO
IC50 (Histone deacetylase 9): > 5000 nM
IC50 (Histone deacetylase 11): > 5000 nM
IC50 (Histone deacetylase 8): > 1000 nM
IC50 (Histone deacetylase 4): > 5000 nM
IC50 (Histone deacetylase 3): 3 nM
IC50 (Histone deacetylase 7): > 5000 nM
IC50 (Histone deacetylase 2): 3 nM
IC50 [19]: 6 nM
IC50 (Histone deacetylase 5): > 5000 nM
IC50 [20]: 4 nM
